Experiment [1] concerns A549 cells. Nature of the experiment: Ras cellular assay, growth of cells with K-Ras G12S mutation (CellTiter-Glo). The format is cell-based. The conditions noted are these: Homo sapiens, cell growth, Example 9, G12S mutation, read-out: IC50 against A549 cells. The method in brief: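 A549 cells (K-Ras G12S) in RPMI-1640 with 10% heat-inactivated FBS, seeded e.g. 800 per well in standard or ultra-low-attachment 384-well plates, treated next day with a dilution series (e.g. 10-point, 3-fold). Viability by CellTiter-Glo luminescence about 6 days later; IC50 from four-parameter fit.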
In general terms: ATP-based viability assays read luminescence as a measure of living cells.

The target in experiment [2] is T1, K-Ras G12V (Homo sapiens, UniProt P01116, G12V).
T1 construct: made in house; host or cells: E. coli BL21 (DE3)
Nature of the experiment: HTRF resonance energy transfer assay, K-Ras G12V / SOS1 interaction. The conditions noted are these: HTRF assay of Example 5; read-out: IC50 against K-Ras G12V. The experiment is classed as biochemical. The method in brief: (§1)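 Read-out: HTRF 665/620 nm ratio (excitation 337 nm) after roughly 10 min or longer incubation, used to derive IC50. Donor anti-GST-Eu on GST-K-Ras; acceptor anti-6His-XL665 on His-hSOS1. Duplicate dose series from 10 μM down to 0.01 μM.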
Background: In TR-FRET formats the signal depends on donor and acceptor labels being close together.

Experiment [3] relates to SW620 cells. Nature of the experiment: Ras cellular assay, growth of cells with K-Ras G12V mutation (CellTiter-Glo). The format is cell-based. The conditions noted are these: Homo sapiens, SW-620; cell growth, Example 9, G12V mutation; read-out: IC50 against SW620 cells. In a few lines:
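SW620 (K-Ras G12V) cells, e.g. 800/well in RPMI-1640 with 10% heat-inactivated FBS on standard or ultra-low attachment plates, were dosed the day after plating with e.g. a 10-point 3-fold series. Viability by CellTiter-Glo luminescence about 6 days later; IC50 from four-parameter fit.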

The target of experiment [4] is T2, K-Ras G12D (Homo sapiens, UniProt P01116, G12D).
T2 construct: made in house; host or cells: E. coli BL21 (DE3)
Kind of experiment: HTRF resonance energy transfer assay, K-Ras G12D / SOS1 interaction. The conditions noted are these: HTRF assay of Example 5; read-out: IC50 against K-Ras G12D. The format is biochemical. In a few lines: as §1

Experiment [5] deals with T3, K-Ras G12S (Homo sapiens, UniProt P01116, G12S).
T3 construct: made in house; host or cells: E. coli BL21 (DE3)
Kind of experiment: HTRF resonance energy transfer assay, K-Ras G12S / SOS1 interaction. The format is biochemical. The conditions noted are these: HTRF assay of Example 5; read-out: IC50 against K-Ras G12S. In a few lines: as §1

In experiment [6] the target is T4, K-Ras WT (Homo sapiens, UniProt P01116).
T4 construct: made in house; host or cells: E. coli BL21 (DE3)
Kind of experiment: HTRF resonance energy transfer assay, K-Ras WT / SOS1 interaction. The conditions noted are these: HTRF assay of Example 5; read-out: IC50 against K-Ras WT. The format is biochemical. The method in brief:
as §1

pIC50: −log10 of the molar value.

T4 sequence (P01116 1-188 isoform P01116-2): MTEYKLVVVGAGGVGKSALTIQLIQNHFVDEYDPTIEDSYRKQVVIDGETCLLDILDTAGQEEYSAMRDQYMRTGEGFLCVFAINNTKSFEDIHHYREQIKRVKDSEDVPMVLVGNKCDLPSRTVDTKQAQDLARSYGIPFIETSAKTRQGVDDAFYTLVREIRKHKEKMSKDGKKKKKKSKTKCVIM
T1 sequence (P01116 1-188 isoform P01116-2 G12V): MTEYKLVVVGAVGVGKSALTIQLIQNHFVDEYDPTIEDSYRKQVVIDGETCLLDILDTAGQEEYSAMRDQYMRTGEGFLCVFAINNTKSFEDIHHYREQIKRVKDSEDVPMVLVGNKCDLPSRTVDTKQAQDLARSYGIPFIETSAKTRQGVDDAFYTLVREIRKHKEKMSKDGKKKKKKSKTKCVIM
T2 sequence (P01116 1-188 isoform P01116-2 G12D): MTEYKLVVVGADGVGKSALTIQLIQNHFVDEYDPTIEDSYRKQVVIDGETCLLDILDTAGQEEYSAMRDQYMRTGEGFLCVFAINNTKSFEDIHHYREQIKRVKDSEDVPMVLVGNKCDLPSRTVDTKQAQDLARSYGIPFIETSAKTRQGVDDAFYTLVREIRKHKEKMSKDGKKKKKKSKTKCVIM
T3 sequence (P01116 1-188 isoform P01116-2 G12S): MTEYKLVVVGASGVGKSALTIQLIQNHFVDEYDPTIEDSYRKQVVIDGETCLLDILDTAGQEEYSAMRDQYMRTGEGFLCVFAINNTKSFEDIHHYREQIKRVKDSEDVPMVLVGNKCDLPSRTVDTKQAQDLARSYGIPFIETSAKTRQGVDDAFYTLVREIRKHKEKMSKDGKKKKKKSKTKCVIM

With `N#Cc1c(N)sc2c(F)ccc(-c3c(Cl)c4c5c(nc(OC[C@@]67CCCN6C[C@H](F)C7)nc5c3F)N(C3CCN(CC(F)F)C3)CCO4)c12` (stereo partly drawn) [Compound 693, 2-amino-4-(8-chloro-4-(1-(2,2-difluoroethyl)pyrrolidin-3-yl)-10-fluoro-2-(((2R,7aS)-2-fluorotetrahydro-1H-pyrrolizin-7a(5H)-yl)methoxy)-5,6-dihydro-4H-[1,4]oxazepino[5,6,7-de]quinazolin-9-yl)-7-fluorobenzo[b]thiophene-3-carbonitrile], the negative logarithm of the IC50 (pIC50) in experiment [1] is > 5.30; in experiment [2], > 7.00; in experiment [3], > 5.30; in experiment [4], > 7.00; in experiment [5], > 7.00; in experiment [6], > 7.00.

As to `N#Cc1c(N)sc2c(F)ccc(-c3c(Cl)c4c5c(nc(OC[C@@]67CCCN6C[C@H](F)C7)nc5c3F)N(C3CCN(C(=O)C5CC5C#N)CC3)CCO4)c12` (stereo partly drawn) [Compound 703, 2-amino-4-(8-chloro-4-(1-(2-cyanocyclopropane-1-carbonyl)piperidin-4-yl)-10-fluoro-2-(((2R,7aS)-2-fluorotetrahydro-1H-pyrrolizin-7a(5H)-yl)methoxy)-5,6-dihydro-4H-[1,4]oxazepino[5,6,7-de]quinazolin-9-yl)-7-fluorobenzo[b]thiophene-3-carbonitrile], the pIC50 in experiment [1] was > 5.30; in experiment [2], > 7.00; in experiment [3] it was > 5.30; in experiment [4] it was > 7.00; in experiment [5] it was > 7.00; in experiment [6], > 7.00.

As for `CC1(O)CC(N2CCOc3c(Cl)c(-c4ccc(F)c5sc(N)c(C#N)c45)c(F)c4nc(OC[C@@]56CCCN5C[C@H](F)C6)nc2c34)C1` (stereo partly drawn) [Compound 708, 2-amino-4-(8-chloro-10-fluoro-2-(((2R,7aS)-2-fluorotetrahydro-1H-pyrrolizin-7a(5H)-yl)methoxy)-4-(3-hydroxy-3-methylcyclobutyl)-5,6-dihydro-4H-[1,4]oxazepino[5,6,7-de]quinazolin-9-yl)-7-fluorobenzo[b]thiophene-3-carbonitrile], the pIC50 in experiment [1] is > 5.30; in experiment [2], > 7.00; in experiment [3], > 5.30; in experiment [4], > 7.00; in experiment [5], > 7.00; in experiment [6] it was > 7.00.

`N#Cc1c(N)sc2c(F)ccc(-c3c(Cl)c4c5c(nc(OC[C@@]67CCCN6C[C@H](F)C7)nc5c3F)N(C3CC5CCC3N5)CCO4)c12` (stereo partly drawn) [Compound 733, 4-(4-(7-azabicyclo[2.2.1]heptan-2-yl)-8-chloro-10-fluoro-2-(((2R,7aS)-2-fluorotetrahydro-1H-pyrrolizin-7a(5H)-yl)methoxy)-5,6-dihydro-4H-[1,4]oxazepino[5,6,7-de]quinazolin-9-yl)-2-amino-7-fluorobenzo[b]thiophene-3-carbonitrile]: the negative-log IC50 (pIC50) in experiment [1] was > 5.30; in experiment [2], > 7.00; in experiment [3], > 5.30; in experiment [4], > 7.00; in experiment [5], > 7.00; in experiment [6] it was > 7.00.

For the compound `N#Cc1c(N)sc2c(F)ccc(-c3c(Cl)c4c5c(nc(OC[C@@]67CCCN6C[C@H](F)C7)nc5c3F)N(C3CC(N)C3)CCO4)c12` (stereo partly drawn) [Compound 734, 2-amino-4-(4-(3-aminocyclobutyl)-8-chloro-10-fluoro-2-(((2R,7aS)-2-fluorotetrahydro-1H-pyrrolizin-7a(5H)-yl)methoxy)-5,6-dihydro-4H-[1,4]oxazepino[5,6,7-de]quinazolin-9-yl)-7-fluorobenzo[b]thiophene-3-carbonitrile], the pIC50 is > 5.30 in experiment [1]; > 7.00 in experiment [2]; > 5.30 in experiment [3]; > 7.00 in experiment [4]; > 7.00 in experiment [5]; > 7.00 in experiment [6].

Turning to `CC1Oc2c(Cl)c(-c3ccc(F)c4sc(N)c(C#N)c34)c(F)c3nc(OC[C@@]45CCCN4C[C@H](F)C5)nc(c23)N([C@@H]2CCOC2)C1C` (stereo partly drawn) [Compound 741, 2-amino-4-(8-chloro-10-fluoro-2-(((2R,7aS)-2-fluorotetrahydro-1H-pyrrolizin-7a(5H)-yl)methoxy)-5,6-dimethyl-4-((R)-tetrahydrofuran-3-yl)-5,6-dihydro-4H-[1,4]oxazepino[5,6,7-de]quinazolin-9-yl)-7-fluorobenzo[b]thiophene-3-carbonitrile], the negative-log IC50 (pIC50) is > 5.30 in experiment [1]; > 7.00 in experiment [2]; > 5.30 in experiment [3]; > 7.00 in experiment [4]; > 7.00 in experiment [5]; > 7.00 in experiment [6].

For `N#Cc1c(N)sc2c(F)ccc(-c3c(Cl)c4c5c(nc(OC[C@@]67CCCN6C[C@H](F)C7)nc5c3F)N(C3CCC5(C3)CN(C(=O)C3CC3(F)F)C5)CCO4)c12` (stereo partly drawn) [Compound 746, 2-amino-4-(8-chloro-4-(2-(2,2-difluorocyclopropane-1-carbonyl)-2-azaspiro[3.4]octan-6-yl)-10-fluoro-2-(((2R,7aS)-2-fluorotetrahydro-1H-pyrrolizin-7a(5H)-yl)methoxy)-5,6-dihydro-4H-[1,4]oxazepino[5,6,7-de]quinazolin-9-yl)-7-fluorobenzo[b]thiophene-3-carbonitrile], the pIC50 is > 5.30 in experiment [1]; > 7.00 in experiment [2]; > 5.30 in experiment [3]; > 7.00 in experiment [4]; > 7.00 in experiment [5]; > 7.00 in experiment [6].

As for `CC(=O)NC1CCC(N2CCOc3c(Cl)c(-c4ccc(F)c5sc(N)c(C#N)c45)c(F)c4nc(OC[C@@]56CCCN5C[C@H](F)C6)nc2c34)C1` (stereo partly drawn) [Compound 781, N-(3-(9-(2-amino-3-cyano-7-fluorobenzo[b]thiophen-4-yl)-8-chloro-10-fluoro-2-(((2R,7aS)-2-fluorotetrahydro-1H-pyrrolizin-7a(5H)-yl)methoxy)-5,6-dihydro-4H-[1,4]oxazepino[5,6,7-de]quinazolin-4-yl)cyclopentyl)acetamide], the negative-log IC50 (pIC50) in experiment [1] is > 5.30; in experiment [2], > 7.00; in experiment [3], > 5.30; in experiment [4], > 7.00; in experiment [5], > 7.00; in experiment [6], > 7.00.

As to `N#Cc1c(N)sc2c(F)ccc(-c3c(Cl)c4c5c(nc(OC[C@@]67CCCN6C[C@H](F)C7)nc5c3F)N(C3CCOCC3)CCO4)c12` [Compound 813, 2-amino-4-(8-chloro-10-fluoro-2-(((2R,7aS)-2-fluorotetrahydro-1H-pyrrolizin-7a(5H)-yl)methoxy)-4-(tetrahydro-2H-pyran-4-yl)-5,6-dihydro-4H-[1,4]oxazepino[5,6,7-de]quinazolin-9-yl)-7-fluorobenzo[b]thiophene-3-carbonitrile], the pIC50 in experiment [1] is > 5.30; in experiment [2], > 7.00; in experiment [3], > 5.30; in experiment [4], > 7.00; in experiment [5], > 7.00; in experiment [6], > 7.00.

With `N#Cc1c(N)sc2c(F)ccc(-c3c(Cl)c4c5c(nc(OC[C@@]67CCCN6C[C@H](F)C7)nc5c3F)N(C3CCC(NC=O)C3)CCO4)c12` (stereo partly drawn) [Compound 829, N-(3-(9-(2-amino-3-cyano-7-fluorobenzo[b]thiophen-4-yl)-8-chloro-10-fluoro-2-(((2R,7aS)-2—fluorotetrahydro-1H-pyrrolizin-7a(5H)-yl)methoxy)-5,6-dihydro-4H-[1,4]oxazepino[5,6,7-de]quinazolin-4-yl)cyclopentyl)formamide], the pIC50 was > 5.30 in experiment [1]; > 7.00 in experiment [2]; > 5.30 in experiment [3]; > 7.00 in experiment [4]; > 7.00 in experiment [5]; > 7.00 in experiment [6].

Take `N#Cc1c(N)sc2c(F)ccc(-c3c(Cl)c4c5c(nc(OC[C@@]67CCCN6C[C@H](F)C7)nc5c3F)N(C3CC(NC=O)C3)CCO4)c12` (stereo partly drawn) [Compound 836, N-(3-(9-(2-amino-3-cyano-7-fluorobenzo[b]thiophen-4-yl)-8-chloro-10-fluoro-2-(((2R,7aS)-2-fluorotetrahydro-1H-pyrrolizin-7a(5H)-yl)methoxy)-5,6-dihydro-4H-[1,4]oxazepino[5,6,7-de]quinazolin-4-yl)cyclobutyl)formamide]: the pIC50 in experiment [1] is > 5.30; in experiment [2], > 7.00; in experiment [3], > 5.30; in experiment [4], > 7.00; in experiment [5], > 7.00; in experiment [6] it was > 7.00.

As usually defined, the pIC50 is −log10 of the IC50, conventionally taken in molar units.

The values above are taken from patent publication US12209102B2, “Heterocyclic compounds and uses thereof” (Kumquat Biosciences Inc., priority 2022, dated 2025).
